Residues, ends and D or L forms follow the SMILES beside them.
Columns and labels:
MDA-MB-231 cells = test: Migration assay (Oris exclusion zone); type: cell-based, human; settings: 24 hours treatment, 10 hours migration
Description: Migration assay: The Oris cell migration assembly kit (Platypus Technologies) was used. Cells were stained with CellTrace Violet (Life Technologies) according to manufacturer's protocol. Stoppers were placed in wells of a 96-well plate before cells were seeded at a density of 30,000 cells per well. For experiments involving CT20p treatment, treatments with CT20p were began 18 hours following seeding and allowed to continue for 24 hours. Treatments were done in quadruplicate. At the end of the treatment period, stoppers were removed to create an exclusion zone that the cells would migrate into. MDA-MB-231 cells were allowed to migrate for 10 hours. MCF-10A and MCF-10A EMT cells were allowed to migrate for 20 hours. Following the migration period, fluorescent images were obtained using a Plate Runner HD (Trophos). […] Images were analyzed by ImageJ software (NIH) by using the wand tool to automatically define and measure the migration zone. % closure was calculated as [(pre migration area−migration area)/pre migration area]×100.
Observations on the effects of CT20p on breast cancer cells include loss of actin distribution throughout the cell, especially in the filapodia (FIG. 3C). […] Immediately following removal of the stoppers, the pre-migration area can be determined. […] After quantification of the areas as described in Materials & Methods, % closure was calculated for each condition (FIG. 11B). […]

[1] = target: T1, Purified recombinant CCTβ (Homo sapiens, UniProt P78371); test: Pull-down with purified recombinant CCTβ; type: binding; settings: 0.1 nmol CCTβ, CT20p-Biotin 0.1 to 4 nmol
T1 construct: purchased MyBioSource; host or cells: E. coli
T1 sequence (P78371 1-535): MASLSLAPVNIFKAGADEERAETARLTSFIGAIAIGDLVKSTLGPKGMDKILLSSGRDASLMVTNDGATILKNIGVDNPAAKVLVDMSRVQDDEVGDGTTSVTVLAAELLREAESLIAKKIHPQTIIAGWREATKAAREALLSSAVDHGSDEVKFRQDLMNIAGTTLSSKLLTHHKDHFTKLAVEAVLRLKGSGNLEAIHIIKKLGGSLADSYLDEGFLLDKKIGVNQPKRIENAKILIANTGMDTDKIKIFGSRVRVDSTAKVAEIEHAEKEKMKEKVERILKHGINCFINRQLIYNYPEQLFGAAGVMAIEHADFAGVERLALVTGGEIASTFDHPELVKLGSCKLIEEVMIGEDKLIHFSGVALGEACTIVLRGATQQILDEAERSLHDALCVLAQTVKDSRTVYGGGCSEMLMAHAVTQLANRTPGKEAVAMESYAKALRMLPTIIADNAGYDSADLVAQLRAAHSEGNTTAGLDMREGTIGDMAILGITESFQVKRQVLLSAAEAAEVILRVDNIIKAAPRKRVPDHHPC
Description: FIG. 9 is representative data showing that CT20p binds directly to CCTβ. Purified recombinant CCTβ was tested for interaction with CT20p as described in Materials and Methods.
Pull down experiments: Lysate pull-downs were performed with 200 ug cell lysate, obtained by douncing as described above. Lysates were pre-cleared with streptavidin-agarose beads (Pierce), then incubated with […] of CT20-Biotin or biotin for 3 hours at room temperature, followed by overnight incubation at 4° C. with streptavidin-agarose beads. Beads were washed thoroughly with wash buffer (25 mM Tris, 150 mM NaCl, 0.1% NP40, pH7.4), then heated in 4× loading buffer (Invitrogen) for analysis by SDS-PAGE. Mass spectrometric analysis was performed by Moffit Cancer Center (Tampa, FL). Mass spectrometry results presented are of proteins with at least two unique peptides identified, and that were not recovered with biotin-only pull down. In-cell pull downs were performed by first delivering CT20p-Biotin encapsulated in nanoparticles to viable cells at a dose of 75 μg/mL for varying lengths of time. Following treatment, cells were collected and lysed by douncing. 200 ug of cell lysate were then incubated with streptavidin-agarose beads overnight at 4° C., and pull-down was completed as described above. […]

**Q.** With `CC[C@H](C)[C@H](NC(=O)[C@@H](NC(=O)[C@H](CC(C)C)NC(=O)[C@H](CO)NC(=O)[C@H](C)NC(=O)[C@@H](NC(=O)[C@H](CC(C)C)NC(=O)[C@@H](NC(=O)CNC(=O)[C@H](C)NC(=O)[C@@H](NC(=O)[C@H](Cc1ccccc1)NC(=O)[C@@H](NC(=O)[C@@H](NC(=O)[C@@H](NC(C)=O)C(C)C)[C@@H](C)O)[C@@H](C)CC)C(C)C)C(C)C)[C@@H](C)O)[C@@H](C)O)C(=O)N[C@@H](Cc1c[nH]c2ccccc12)C(=O)N[C@@H](CCCCN)C(=O)N[C@@H](CCCCN)C(=O)N[C@@H](CCSC)C(=O)NCC(N)=O` [CT20] (Ac-VTIFVAGVLTASLTIWKKMG-NH2) as the molecule, how does the “Effect on migration (% closure of exclusion zone)” value (MDA-MB-231 cells; 75 μg/mL) read?
**A.** significantly impaired movement

**Q.** And the “Effect on migration (% closure of exclusion zone)” value (MDA-MB-231 cells; 150 μg/mL)?
**A.** nearly eliminated

**Q.** And the “Direct interaction with CCTβ” value [1]?
**A.** does interact directly with CCTβ
